Patent US20210045385A1, “PYRIDAZINONE-SUBSTITUTED KETOXIMES AS HERBICIDES” (FMC Corporation, priority 2018, published 2021)

Tests used:
Assay type in all cases: in vivo
[1] = system: Italian ryegrass (Lolium mutiflorum); test: Test C preemergence, visual plant response rating
Outline: (§1)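 Visual injury on a 0 (no effect) to 100 (complete control) scale versus untreated controls, scored approximately 10 d after treatment under greenhouse conditions. Treatments used surfactant-containing non-phytotoxic solvent formulations, sprayed onto loam–sand soil preemergence or onto one- to two-leaf plants 2–10 cm tall postemergence.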

[2] = system: barnyardgrass (Echinochloa crus-galli); test: Test C preemergence, visual plant response rating
Outline: as §1

[3] = system: foxtail, giant (giant foxtail, Setaria faberi); test: Test C preemergence, visual plant response rating
Outline: as §1

kochia (Bassia scoparia) [4] = test: Test C preemergence, visual plant response rating
Outline: as §1

[5] = system: pigweed (Amaranthus retroflexus); test: Test C preemergence, visual plant response rating
Outline: as §1

[6] = system: ragweed (common ragweed, Ambrosia artemisiifolia); test: Test C preemergence, visual plant response rating
Outline: as §1

[7] = system: Italian ryegrass (Lolium mutiflorum); test: Test C postemergence, visual plant response rating
Outline: as §1

[8] = system: barnyardgrass (Echinochloa crus-galli); test: Test C postemergence, visual plant response rating
Outline: as §1

[9] = system: blackgrass (Alopecurus myosuroides); test: Test C postemergence, visual plant response rating
Outline: as §1

corn (Zea mays) = test: Test C postemergence, visual plant response rating
Outline: as §1

[10] = system: foxtail, giant (giant foxtail, Setaria faberi); test: Test C postemergence, visual plant response rating
Outline: as §1

[11] = system: galium (catchweed bedstraw, Galium aparine); test: Test C postemergence, visual plant response rating
Outline: as §1

kochia (Bassia scoparia) [12] = test: Test C postemergence, visual plant response rating
Outline: as §1

[13] = system: pigweed (Amaranthus retroflexus); test: Test C postemergence, visual plant response rating
Outline: as §1

[14] = system: ragweed (common ragweed, Ambrosia artemisiifolia); test: Test C postemergence, visual plant response rating
Outline: as §1

[15] = system: wheat (Triticum aestivum); test: Test C postemergence, visual plant response rating
Outline: as §1

[16] = system: barnyardgrass (Echinochloa crus-galli); test: Test D flooded paddy test, visual plant response rating; conditions: 250 g ai/ha, scale 0 to 100 (0 no effect, 100 complete control), 13 to 15 d
Outline: (§2)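 Visual injury scores, 0 (no effect) to 100 (complete control), were assigned after 13 to 15 d in the greenhouse by comparison with controls. Test compounds had been added to paddy water covering soil by 3 cm at the 2-leaf stage.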

[17] = system: duck salad (Heteranthera limosa); test: as above; conditions: 250 g ai/ha, scale 0 to 100 (0 no effect, 100 complete control), 13 to 15 d
Outline: as §2

rice (Oryza sativa) = test: as above; conditions: 250 g ai/ha, scale 0 to 100 (0 no effect, 100 complete control), 13 to 15 d
Outline: as §2

[18] = system: sedge umbrella (small-flower umbrella sedge, Cyperus difformis); test: as above; conditions: 250 g ai/ha, scale 0 to 100 (0 no effect, 100 complete control), 13 to 15 d
Outline: as §2

[19] = Test C, 31 g ai/ha, 0 is no effect, 100 is complete control
[20] = Test C, 125 g ai/ha, 0 is no effect, 100 is complete control
[21] = Test C, postemergence, 125 g ai/ha

SMILES | Ryegrass, Italian plant response rating (0 to 100 scale) [1, 19] | Barnyardgrass plant response rating (0 to 100 scale) [2, 19] | Foxtail, Giant plant response rating (0 to 100 scale) [3, 19] | Kochia plant response rating (0 to 100 scale) (kochia (Bassia scoparia) [4]; [19]) | Pigweed plant response rating (0 to 100 scale) [5, 19] | Ragweed plant response rating (0 to 100 scale) [6, 19] | Ryegrass, Italian plant response rating (0 to 100 scale) ([7]; Postemergence, 31 g ai/ha) | Ryegrass, Italian plant response rating (0 to 100 scale) [7, 21] | Barnyardgrass plant response rating (0 to 100 scale) ([8]; Postemergence, 31 g ai/ha) | Barnyardgrass plant response rating (0 to 100 scale) [8, 21] | Blackgrass plant response rating (0 to 100 scale) ([9]; Postemergence, 31 g ai/ha) | Blackgrass plant response rating (0 to 100 scale) [9, 21] | Corn plant response rating (0 to 100 scale) (corn (Zea mays); Postemergence, 31 g ai/ha) | Corn plant response rating (0 to 100 scale) (corn (Zea mays); [21]) | Foxtail, Giant plant response rating (0 to 100 scale) ([10]; Postemergence, 31 g ai/ha) | Foxtail, Giant plant response rating (0 to 100 scale) [10, 21] | Galium plant response rating (0 to 100 scale) ([11]; Postemergence, 31 g ai/ha) | Galium plant response rating (0 to 100 scale) [11, 21] | Kochia plant response rating (0 to 100 scale) (kochia (Bassia scoparia) [12]; Postemergence, 31 g ai/ha) | Kochia plant response rating (0 to 100 scale) (kochia (Bassia scoparia) [12]; [21]) | further results
CON=C(c1cc(Cl)cc(F)c1Cl)c1c(O)c(C)nn(C)c1=O [Compound 271] | 80 | 30 | 40 | 20 | 100 | 30 | 80 | 100 | 40 | 80 | 20 | 40 | 10 | 30 | 70 | 80 | 100 | 100 | 60 | 80 | Ryegrass, Italian plant response rating (0 to 100 scale) [1, 20]: 100; Barnyardgrass plant response rating (0 to 100 scale) [2, 20]: 50; Foxtail, Giant plant response rating (0 to 100 scale) [3, 20]: 80; Kochia plant response rating (0 to 100 scale) (kochia (Bassia scoparia) [4]; [20]): 100; Pigweed plant response rating (0 to 100 scale) [5, 20]: 100; Ragweed plant response rating (0 to 100 scale) [6, 20]: 80; Pigweed plant response rating (0 to 100 scale) ([13]; Postemergence, 31 g ai/ha): 80; Pigweed plant response rating (0 to 100 scale) [13, 21]: 90; Ragweed plant response rating (0 to 100 scale) ([14]; Postemergence, 31 g ai/ha): 70; Ragweed plant response rating (0 to 100 scale) [14, 21]: 90; Wheat plant response rating (0 to 100 scale) ([15]; Postemergence, 31 g ai/ha): 30; Wheat plant response rating (0 to 100 scale) [15, 21]: 70; Plant response rating, Barnyardgrass (Flood) [16]: 0; Plant response rating, Ducksalad (Flood) [17]: 0; Plant response rating, Rice (Flood) (rice (Oryza sativa)): 0; Plant response rating, Sedge, Umbrella (Flood) [18]: 0
CO/N=C(\c1c(O)c(C)nn(C)c1=O)c1cc(SC)cc2ccccc12 [Compound 279] | 0 | 0 | 0 | 0 | 0 | 0 | 0 | 0 | 0 | 0 | 0 | 0 | 0 | 0 | 0 | 0 | 0 | 0 | 0 | 30 | Ryegrass, Italian plant response rating (0 to 100 scale) [1, 20]: 0; Barnyardgrass plant response rating (0 to 100 scale) [2, 20]: 0; Foxtail, Giant plant response rating (0 to 100 scale) [3, 20]: 0; Kochia plant response rating (0 to 100 scale) (kochia (Bassia scoparia) [4]; [20]): 0; Pigweed plant response rating (0 to 100 scale) [5, 20]: 0; Ragweed plant response rating (0 to 100 scale) [6, 20]: 0; Pigweed plant response rating (0 to 100 scale) ([13]; Postemergence, 31 g ai/ha): 0; Pigweed plant response rating (0 to 100 scale) [13, 21]: 10; Ragweed plant response rating (0 to 100 scale) ([14]; Postemergence, 31 g ai/ha): 0; Ragweed plant response rating (0 to 100 scale) [14, 21]: 10; Wheat plant response rating (0 to 100 scale) ([15]; Postemergence, 31 g ai/ha): 0; Wheat plant response rating (0 to 100 scale) [15, 21]: 0; Plant response rating, Barnyardgrass (Flood) [16]: 0; Plant response rating, Ducksalad (Flood) [17]: 0; Plant response rating, Rice (Flood) (rice (Oryza sativa)): 0; Plant response rating, Sedge, Umbrella (Flood) [18]: 0
CO/N=C(/c1cc(Cl)cc(OC)c1)c1c(O)c(C)nn(C)c1=O [Compound 165] | 80 | 60 | 60 | 80 | 0 | 50 | 70 | 100 | 40 | 80 | 20 | 40 | 0 | 20 | 20 | 70 | 100 | 100 | 90 | 90 | Ryegrass, Italian plant response rating (0 to 100 scale) ([1]; 125 g ai/ha): 100; Barnyardgrass plant response rating (0 to 100 scale) ([2]; 125 g ai/ha): 80; Foxtail, Giant plant response rating (0 to 100 scale) ([3]; 125 g ai/ha): 70; Kochia plant response rating (0 to 100 scale) (kochia (Bassia scoparia) [4]; 125 g ai/ha): 100; Pigweed plant response rating (0 to 100 scale) ([5]; 125 g ai/ha): 20; Ragweed plant response rating (0 to 100 scale) ([6]; 125 g ai/ha): 90; Pigweed plant response rating (0 to 100 scale) ([13]; Postemergence, 31 g ai/ha): 40; Pigweed plant response rating (0 to 100 scale) [13, 21]: 70; Ragweed plant response rating (0 to 100 scale) ([14]; Postemergence, 31 g ai/ha): 80; Ragweed plant response rating (0 to 100 scale) [14, 21]: 100; Wheat plant response rating (0 to 100 scale) ([15]; Postemergence, 31 g ai/ha): 0; Wheat plant response rating (0 to 100 scale) [15, 21]: 30; Plant response rating, Barnyardgrass (Flood) [16]: 0; Plant response rating, Ducksalad (Flood) [17]: 0; Plant response rating, Rice (Flood) (rice (Oryza sativa)): 0; Plant response rating, Sedge, Umbrella (Flood) [18]: 0
